From patent US20130189200A1, “Oral Composition For Removing Tooth Stain” (REGENETISS, INC., priority 2010, published 2013)

Experiment: Whitening effect evaluation test (residual ratio of stain on tea-stained dry apatite)
Protocol: 1 to 2 g of hydroxyapatite (Biogel-HTP, Bio-Rad Laboratories, Inc.) was put into a 50 mL tube, and 20 mL of protein solution (1%, IXOS SCP5000, Nitta Gelatin Inc.) was added thereto, and the mixture was left to stand for 10 to 15 minutes, and then the mixture was separated by centrifugation at 3,000×g for 2 minutes to remove a supernatant. Next, after the centrifugation, 20 mL of stain solution (5 g of instant coffee, two tea bags and two green tea bags were put into 110 mL of water, and the mixture was heated by a microwave oven for 2 minutes. Then the mixture was cooled down at room temperature with shaking for 3 hours to one night. Then the mixture was filtered by a 200 mesh filter. The stain liquid was obtained like this.) was mixed with the precipitated apatite, and the mixture was left to stand for 10 to 15 minutes, and then the mixture was separated by centrifugation (2,500 rpm, 2 minutes) to remove a supernatant. Then, after centrifugation, 20 mL of artificial saliva (20 mM HEPES-KOH pH 7.0, 1.5 mM CaCl2 and 0.9 mM KH2PO4) was added into the precipitated apatite, and the mixture was left to stand for 10 to 15 minutes, and then the mixture was separated by centrifugation (2,500 rpm, 2 minutes). After removal of a supernatant from the mixture, the precipitated apatite was dried.
20 mg of the tea-stained dry apatite is weighed, and 0.3 mL of solution was added thereto, which contains H2O2 at various concentrations and, as appropriate, various phosphate polymers, NaOH and other substances, and then the mixture was left to stand at a certain temperature for a certain time. Then the apatite was precipitated by centrifugation (3,000×g, 15 seconds), and a supernatant was removed from the mixture, and then the apatite was mixed well with 1 mL of water to wash. Further, subsequent washing procedure was repeated four times. After that, the apatite was suspended in 200 μL of water, and the suspension was poured into a well of a 96 well microtiter plate. The 96 well microtiter plate was scanned from the bottom by a scanner (Epson GT8300). The image was inverted to be negative, and brightness analysis was performed by means of imageJ (free software), and then the residual ratio of stain was calculated.

Row | Structure (SMILES) | Residual ratio of stain (3.5% H2O2, 0% ultraphosphate, pH 7.5, 42 °C, 10 min) [%] | Residual ratio of stain (3.5% H2O2, 0% ultraphosphate, pH 7.5, 42 °C, 30 min) [%] | Residual ratio of stain (3.5% H2O2, 0% ultraphosphate, pH 7.5, 42 °C, 60 min) [%] | Residual ratio of stain (3.5% H2O2, 0% ultraphosphate, pH 7.5, 42 °C, 180 min) [%] | Residual ratio of stain (3.5% H2O2 alone, alkaline (1), pH 11.6, 45 °C, 30 min) [%] | Residual ratio of stain (20% hydrogen peroxide under alkaline condition, 30 minutes treatment) [%] | Residual ratio of stain (15% carbamide peroxide alone, NaOH 0 N, pH 7.0, 45 °C, 30 min) [%] | Residual ratio of stain (15% carbamide peroxide alone, NaOH 0 N, pH 7.0, 45 °C, 60 min) [%] | Residual ratio of stain (15% carbamide peroxide alone, NaOH 1 N, pH 11.4, 45 °C, 30 min) [%] | Residual ratio of stain (15% carbamide peroxide alone, NaOH 1 N, pH 11.4, 45 °C, 60 min) [%] | Residual ratio of stain (30% carbamide peroxide alone, NaOH 0 N, pH 7.1, 45 °C, 60 min) [%] | Residual ratio of stain (30% carbamide peroxide alone, NaOH 1 N, pH 10.9, 45 °C, 30 min) [%] | Residual ratio of stain (30% carbamide peroxide alone, NaOH 1 N, pH 10.9, 45 °C, 60 min) [%] | Residual ratio of stain (highest whitening effect) (carbamide peroxide only, 30%, alkaline condition, treatment time 60 minutes (so in the source)) [%]
1 | OO [hydrogen peroxide] | 98.15 | 96.80 | 94.89 | 88.78 | 49.23 | 40.08 |  |  |  |  |  |  |  | 
2 | NC(N)=O.OO [carbamide peroxide] |  |  |  |  |  |  | 89.86 | 87.73 | 27.69 | 30.39 | 60.96 | 19.01 | 20.22 | 19.01
